Test results: US20200352912A1, “ANTIMICROBIAL COMPOSITIONS AND METHODS OF USING THE SAME” (The Board Of Supervisors Of Louisiana State University And …, priority 2018, published 2020)

Columns and labels:
[1] = tested on: dual-species biofilm with C. albicans; assay: biofilm formation on polystyrene (XTT, CFU); format: cell-based, C. albicans and S. aureus
Method: The effect of L-161,982 on biofilm formation was tested. Mono- and dual-species C. albicans and/or S. aureus biofilms were grown on 96-well plates for 24 h with the indicated concentration of L-161, 982. After incubation, metabolic activity of biofilms was quantified by the XTT assay (A) and then biofilms were disrupted to determine live colony forming units (CFU) (B). The results are cumulative of three independent experiments with duplicate samples. Statistics was performed using One-way ANOVA with the Tukey post-hoc test for the XTT assay. The Mann-Whitney U test was used to analyze CFU data. Significance is indicated as follows: ns—not significant, *P<0.05; *** P<0.001. Error bars represent standard deviation.
Following growth as described above, microbes were washed in phosphate-buffered saline (PBS) by centrifugation, counted on a hemocytometer, and adjusted to 2×10^7 CFU/ml in RPMI buffered with MOPS (165 mM). […]
(§1) The XTT reduction assay was used to determine the metabolic activity of biofilms following treatment with L-161, 982 (17). Briefly, wells were washed once in PBS, and plates incubated at 37° C. for 2 h with 200 μl XTT working reagent (0.5 mg/ml XTT and 1 μM Menadione) and the resulting absorbance measured at 490 nm on a microplate spectrophotometer. […]

S. aureus NRS383 = assay: planktonic antimicrobial assay (OD600 growth); format: cell-based, Staphylococcus aureus; conditions: 100 μg/ml (inhibitor-specific concentrations b175), OD600 up to 24 h
Method: Effect of COX enzyme inhibitors or PGE2 EP receptor antagonists on microbial growth. The antimicrobial activity of selective COX enzyme inhibitor or PGE2 EP receptor antagonist on the growth of C. albicans DAY185 (A), S. aureus NRS383 (B) and MRSA and MSSA clinical isolates (C). Growth of C. albicans and S. aureus was monitored for up to 24 h in medium alone or supplemented with DMSO or EP receptor antagonists or COX enzyme inhibitor at physiologically relevant concentrations. Data shown are representative of three independent experiments.
C. albicans and S. aureus were grown as described above. […] Cells were grown with shaking as described above, and 1 ml aliquots were removed each hour in duplicate and optical density at 600 nm measured (OD600) by spectrophotometer (Biomate 3S, Thermo Scientific).

[2] = tested on: S. aureus pre-formed mono-species biofilm; assay: pre-formed mature biofilm (XTT, CFU); format: cell-based, Staphylococcus aureus
Method: The effect of L-161, 982 on pre-formed mature biofilms was tested. Mono- and dual-species C. albicans and/or S. aureus biofilms were grown on 96-well plates for 24 h before being treated with the indicated concentration of L-161, 982 for a further 24 h. After treatment, metabolic activity of biofilms was quantified by the XTT assay (A) and then biofilms were disrupted to determine live colony forming units (CFU) (B). The results are cumulative of three independent experiments with duplicate samples. Statistics were performed using One-way ANOVA with the Tukey post-hoc test for the XTT assay. The Mann-Whitney U test was used to analyze CFU data. Significance is indicated as follows: ns—not significant, *P<0.05; *** P<0.001. Error bars represent standard deviation.
Following growth as described above, microbes were washed in phosphate-buffered saline (PBS) by centrifugation, counted on a hemocytometer, and adjusted to 2×10^7 CFU/ml in RPMI buffered with MOPS (165 mM). For monomicrobial biofilms, 50 μl of adjusted C. albicans or S. aureus culture was added to each well of a sterile 96-well cell culture polystyrene microtiter plate (1×10^6 CFU per well); to this, 50 μl of sterile RPMI+MOPS was added. For polymicrobial biofilms, 50 μl of each organism was added per well (1×10^6 CFU of each organism per well). Plates were incubated for 24 h at 37° C. to induce biofilm formation. Following confirmation of mature biofilm growth by macro- and microscopic examination, plates were washed once with 200 μl sterile saline and then 200 μl RPMI+MOPS containing L-161, 982 at various concentrations (6.25-200 μg/ml) added to each well. […]
as §1

SMILES: CCCCc1nn(-c2ccccc2C(F)(F)F)c(=O)n1Cc1ccc(-c2ccccc2S(=O)(=O)NC(=O)c2sccc2C)cc1 [L-161, 982, N-[[4′-[[3-Butyl-1,5-dihydro-5-oxo-1-[2-(trifluoromethyl)phenyl]-4H-1,2,4-triazol-4-yl]methyl][1,1′-biphenyl]-2-yl]sulfonyl]-3-methyl-2-thiophenecarboxamide]
- inhibitory effect in dual-species biofilm [1]: no inhibitory effect
- growth of S. aureus (S. aureus NRS383): significant inhibitory effect
- concentration required to weaken pre-formed mature biofilms [2]: 100 µg/mL
- CFUs recovered from pre-formed biofilm ([2]; 100 and 200 μg/ml): no CFUs were recovered
- metabolic activity of pre-formed biofilm ([2]; all concentrations tested, 24 h treatment): no significant inhibitory effects
